Results taken from US9233978B2, “6-fused heteroaryldihydropyrimidines for the treatment and prophylaxis of hepatitis B virus infection” (Hoffmann-La Roche Inc., priority 2014, dated 2016).

Each compound was assayed on HBV (assay: Anti-HBV activity in vitro, HepG2.2.15 cells, extracellular HBV DNA by qPCR). Conditions: Hepatitis B virus, HepG2.2.15, 120 h, HepG2.2.15 cells; HBV replication inhibited by 50%, extracellular HBV DNA by qPCR; five days after compound treatment; read-out: EC50.
Format: cell-based
Text: HepG2.2.15 and HepDE19 are stably-transfected cell lines containing the HBV genome. Both cell lines are derived from the hepatoblastoma cell line Hep G2 (American Type Culture Collection, ATCC® HB-8065™) by the published procedures described in references: MA Selles et al. Proc. Natl. Acad. Sci. USA 1987, 84, 1005-1009 and H Guo et al. Journal of Virology 2007, 81, 12472-12484, respectively. Both cell lines were maintained in Dulbecco's modified Eagle's medium (DMEM)-F12 medium supplemented with 10% fetal bovine serum, 100 U/mL penicillin, 100 μg/mL streptomycin, and 0.5 mg/mL of G418.
While HepG2.2.15 cells constitutively support HBV replication and production of virus particles, HepDE19 cells are inducible by tetracycline. Addition of 1 μg/mL tetracycline in culture medium suppresses HBV replication in HepDE19 cells, whereas switching to tetracycline-free medium resumes this process.
HepG2.2.15 cells were seeded into 96-well plates (3×10^4 cells in 100 μL media per well) and incubated overnight at 37° C. The test compounds were serially half-log diluted in DMSO, then diluted 100 times in culture media. 100 μL of diluted compounds were added into the plates to reach 0.5% final concentration of DMSO in every well. Five days after compound treatment, culture supernatant was collected for further analysis.
For quantitative PCR detection of extracellular HBV DNA, 100 μL of culture supernatant was collected and processed in MagNA Pure 96 Nucleic Acid Purification System (Roche Applied Science) for viral DNA extraction. The extracted samples were subjected to HBV DNA quantification by qPCR.

Compared with COC(=O)C1=C(CN2CCN3C(=O)N(CC(C)(C)C(=O)O)C[C@@H]3C2)NC(c2nccs2)=NC1c1ccc(Cl)cc1 (mixture of isomers) [Example 77, 3-[(8aS)-7-[[4-(4-chlorophenyl)-5-methoxycarbonyl-2-thiazol-2-yl-1,4-dihydropyrimidin-6-yl]methyl]-3-oxo-5,6,8,8a-tetrahydro-1H-imidazo[1,5-a]pyrazin-2-yl]-2,2-dimethyl-propanoic acid], CCOC(=O)C1=C(CN2CCN3C(=O)N(CC(C)(C)O)C[C@H]3C2)NC(c2nccs2)=N[C@H]1c1cccc(F)c1Cl (single isomer, unassigned) [Example 106A] is 4.6-fold lower in EC50: 146 nM for the first, 32 nM for the second. The second is the more potent here.

Compared with CCOC(=O)C1=C(CN2CCN3C(=O)N(C(C)(C)C)C[C@@H]3[C@H]2C(=O)OC)NC(c2nccs2)=N[C@H]1c1cccc(F)c1Cl (single isomer, unassigned) [Compound 87B-1], CCOC(=O)C1=C(CN2CCN3C(=O)N(C(C)(C)C)C[C@H]3[C@@H]2C(=O)O)NC(c2nccs2)=N[C@H]1c1cccc(F)c1Cl (single isomer, unassigned) [Example 87A] is 16-fold higher in EC50: 4 nM for the first, 62 nM for the second. The first is the more potent here.

Going from COC(=O)C1=C(CN2CCN3C(=O)N(C(C)(C)C)C[C@H]3[C@@H]2C(=O)O)NC(c2nccs2)=N[C@H]1c1ccc(F)c(F)c1C (single isomer, unassigned) [Example 88A] to CCOC(=O)C1=C(CN2CCN3C(=O)N(C)C[C@@H]3[C@H]2C(=O)O)NC(c2nccs2)=N[C@H]1c1cccc(F)c1Cl (single isomer, unassigned) [Example 91A], the EC50 falls from 677 nM to 150 nM (4.5-fold).

Compared with COC(=O)C1=C(CN2CCN3C(=O)OC(C)(C)[C@@]3(CC(=O)O)C2)NC(c2nccs2)=N[C@H]1c1ccc(F)cc1Cl (single isomer, unassigned) [Example 90B], COC(=O)C1=C(CN2CCN3C(=O)OCCC3C2)NC(c2nccs2)=N[C@H]1c1ccc(F)cc1Cl (stereo partly drawn) [Example 1, Methyl (4R)-4-(2-chloro-4-fluoro-phenyl)-6-[(6-oxo-1,3,4,8,9,9a-hexahydropyrazino[1,2-c][1,3]oxazin-2-yl)methyl]-2-thiazol-2-yl-1,4-dihydropyrimidine-5-carboxylate] is 2.9-fold lower in EC50: 300 nM for the first, 104 nM for the second.

CCOC(=O)C1=C(CN2CCN3C(=O)N(CC4CC4)C[C@H]3[C@@H]2C(=O)O)NC(c2nccs2)=N[C@H]1c1cccc(F)c1Cl (single isomer, unassigned) [Example 97A] and CCOC(=O)C1=C(CN2CCN3C(=O)N(CC(C)C)C[C@H]3[C@@H]2C(=O)O)NC(c2nccs2)=N[C@H]1c1cccc(F)c1Cl (single isomer, unassigned) [Example 101A] are within 1.5-fold of each other in EC50: 37 nM for the first, 40 nM for the second.

CCOC(=O)C1=C(CN2CCN3C(=O)OC[C@H]3[C@@H]2C(=O)O)NC(c2nccs2)=N[C@H]1c1cccc(F)c1Cl (single isomer, unassigned) [Example 102A] and CCOC(=O)C1=C(CN2CCN3C(=O)N(C(C)(C)C)C[C@H]3[C@@H]2CO)NC(c2nccs2)=N[C@H]1c1cccc(F)c1Cl (single isomer, unassigned) [Example 103A] are within 1.5-fold of each other in EC50: 147 nM for the first, 140 nM for the second.

First: CCOC(=O)C1=C(CN2CCN3C(=O)N(C(C)(C)C)C[C@@H]3[C@H]2CO)NC(c2nccs2)=N[C@H]1c1cccc(F)c1Cl (single isomer, unassigned) [Example 103B]
Second: CCOC(=O)C1=C(CN2CCN3C(=O)N(C(C)C)C[C@H]3C2)NC(c2nccs2)=N[C@H]1c1cccc(F)c1Cl (single isomer, unassigned) [Example 104A]
The EC50 of the first is 13-fold lower: 10 nM for the first, 131 nM for the second.

For COC(=O)C1=C(CN2CCN3C(=O)N([C@H]4C[C@@H](C(=O)O)C4)CC3C2)NC(c2nccs2)=N[C@H]1c1ccc(F)cc1Cl (stereo in doubt) [Example 40, 3-[(8aR)-7-[[(4R)-4-(2-chloro-4-fluoro-phenyl)-5-methoxycarbonyl-2-thiazol-2-yl-1,4-dihydropyrimidin-6-yl]methyl]-3-oxo-5,6,8,8a-tetrahydro-1H-imidazo[1,5-a]pyrazin-2-yl]cyclobutanecarboxylic acid], the EC50 was 34 nM.
